# Measurements reported in ChEMBL document CHEMBL4145523, “New selective cyclooxygenase-2 inhibitors from cyclocoumarol: Synthesis, characterization, biological evaluation and molecular modeling” (Eur J Med Chem, 2018).
# Activity calls are given as the source filed them. The rule behind the calls is not given here.
# How the values were obtained:
# RAW264.7 [1] = assay: Down regulation of COX-1 expression in mouse RAW264.7 cells at 10 uM after 24 hrs by Western blot method; type: ADME, cell-based; conditions: raw264.7, 24 h
# [2] = molecular target: T1, Prostaglandin G/H synthase 2 (Mus musculus) (UniProt Q05769); assay: Inhibition of COX-2 in mouse RAW264.7 cells assessed as reduction in PGE2 production preincubated for 2 hrs followed by LPS stimulation measured after 24 hrs by enzyme immunoassay; type: cell-based
# T1 sequence (whole entry): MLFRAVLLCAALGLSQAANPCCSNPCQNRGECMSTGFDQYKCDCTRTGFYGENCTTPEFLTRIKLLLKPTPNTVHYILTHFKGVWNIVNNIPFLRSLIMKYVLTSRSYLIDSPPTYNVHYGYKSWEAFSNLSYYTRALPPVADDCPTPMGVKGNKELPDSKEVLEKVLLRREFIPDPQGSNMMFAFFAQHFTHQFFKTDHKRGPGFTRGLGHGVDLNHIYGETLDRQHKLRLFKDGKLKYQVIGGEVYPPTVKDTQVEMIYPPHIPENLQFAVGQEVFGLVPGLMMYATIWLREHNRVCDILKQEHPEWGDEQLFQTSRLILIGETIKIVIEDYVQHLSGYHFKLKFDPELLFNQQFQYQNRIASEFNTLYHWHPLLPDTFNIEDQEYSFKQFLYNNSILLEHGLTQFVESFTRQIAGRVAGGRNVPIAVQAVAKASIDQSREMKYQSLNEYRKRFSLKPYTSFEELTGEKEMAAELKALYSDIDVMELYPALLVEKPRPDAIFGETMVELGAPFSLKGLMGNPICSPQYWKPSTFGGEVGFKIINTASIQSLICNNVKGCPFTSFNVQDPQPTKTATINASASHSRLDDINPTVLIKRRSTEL
# RAW264.7 [3] = assay: Antiinflammatory activity against mouse RAW264.7 cells assessed as inhibition of LPS induced cox-2 expression at 5 to 20 uM preincubated for 2 hrs followed by LPS challenge measured after 24 hrs by Western blot method; type: functional, cell-based
# [4] = molecular target: T2, Prostaglandin G/H synthase 1 (Mus musculus, UniProt P22437); assay: Inhibition of COX-1 in mouse RAW264.7 cells assessed as reduction in PGE2 production at 10 uM after 24 hrs by enzyme immunoassay; type: cell-based; conditions: raw264.7, 24 h
# T2 sequence (P22437 whole entry): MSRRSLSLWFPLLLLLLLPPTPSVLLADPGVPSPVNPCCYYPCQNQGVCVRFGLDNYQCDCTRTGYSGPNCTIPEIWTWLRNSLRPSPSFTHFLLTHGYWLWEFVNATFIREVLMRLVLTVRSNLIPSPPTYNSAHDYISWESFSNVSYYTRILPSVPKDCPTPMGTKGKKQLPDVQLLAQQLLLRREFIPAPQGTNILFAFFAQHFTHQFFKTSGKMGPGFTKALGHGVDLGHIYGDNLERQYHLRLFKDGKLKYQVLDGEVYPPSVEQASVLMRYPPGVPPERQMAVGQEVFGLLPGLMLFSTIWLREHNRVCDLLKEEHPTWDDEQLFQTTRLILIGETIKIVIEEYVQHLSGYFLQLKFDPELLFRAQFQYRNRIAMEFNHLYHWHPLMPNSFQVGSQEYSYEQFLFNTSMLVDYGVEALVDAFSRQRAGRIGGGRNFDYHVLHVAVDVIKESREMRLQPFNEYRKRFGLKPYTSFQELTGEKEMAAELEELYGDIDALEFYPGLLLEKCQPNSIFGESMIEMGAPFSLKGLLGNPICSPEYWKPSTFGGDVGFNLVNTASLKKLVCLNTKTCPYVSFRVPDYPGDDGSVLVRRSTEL
compound,measurement,setting,value
"COc1ccc(C2CC(C)(OC)Oc3c2c(=O)oc2ccccc32)cc1 (single isomer, unassigned)",Activity,RAW264.7 [1],Non-Toxic
same,inhibition,[2],Dose-dependent effect
same,inhibition,RAW264.7 [3],inactive
same,inhibition (INH),[4],Not Active
